Data on 16 compounds can be found in ChEMBL document CHEMBL3272304, “Syntheses of heterocylic fused thiazole acetic acids. 2” (1976).

Activity calls are given as the source filed them. The rule behind the calls is not given here.

One may read the ED50 as the dose at which the effect has come halfway, by size or by number of responders. What is called T/C is the result in the treated group divided by that in the control group, in per cent.

What all share (type): functional
Experiment [1] relates to Mus musculus. Description: Antidepressant activity in po dosed mouse assessed as antagonism of reserpine-induced ptosis.
Experiment [2] concerns Lewis lung carcinoma cell line. Nature of the experiment: Antimetastatic activity against mouse LLC cells allografted in BDF1 mouse assessed as increase in host survival.
The test system of experiment [3] is Mycobacterium tuberculosis. Nature of the experiment: Antitubercular activity against Mycobacterium tuberculosis H37Rv.
The subject of experiment [4] is Lewis lung carcinoma cell line. Nature of the experiment: Antimetastatic activity against mouse LLC cells allografted in BDF1 mouse assessed as increase in host survival at 150 mg/kg relative to control.

Take `Br.O=C(O)CC1SC2=NCCCN2C1(O)c1ccc(Cl)cc1` (configuration not stated): the ED50 in experiment [1] came to 0.25 mg/kg. Also, the result in experiment [2] was inactive.

As to `COC(=O)CC1Sc2nc3ccccc3n2C1(O)c1ccc(Cl)cc1` (configuration not stated), the Activity in experiment [3] was 2 µg/mL. Also, the outcome in experiment [2] was Active.

The compound `CCOC(=O)CC(Sc1nc2ccccc2[nH]1)C(=O)c1ccc(Cl)cc1` (configuration not stated) showed an Activity in experiment [3] of 1 µg/mL.

As to `O=C(O)CC1Sc2nc3ccccc3n2C1(O)c1ccc(Cl)cc1` (configuration not stated), the T/C in experiment [4] is 37%.

Turning to `NNC(=O)c1ccncc1` [ISONIAZID], in experiment [3], the Activity turned out to be 0.005 µg/mL.

Regarding `O=C(O)Cc1sc2nc3ccccc3n2c1-c1ccc(Cl)cc1`, the result in experiment [2] was Active.

For the compound `Br.CCOC(=O)CC1SC2=NCCCN2C1(O)c1ccc(Cl)cc1` (configuration not stated), the median effective dose (ED50) in experiment [1] stood at 0.118 mg/kg.

In experiment [3], `CCOC(=O)CC1Sc2nc3ccccc3n2C1(O)c1ccc(Cl)cc1` (configuration not stated) showed an Activity of 1 µg/mL. Besides, the result in experiment [2] was Active.

In experiment [3], `Br.COC(=O)CC1Sc2nc3ccccc3n2C1(O)c1ccccc1` (configuration not stated) had an Activity of 5 µg/mL.

With `Br.COC(=O)CC1SC2=NCCN2C1(O)c1ccc(Cl)cc1` (configuration not stated), the 50% effective dose (ED50) in experiment [1] was 0.5 mg/kg. Moreover, the Activity in experiment [3] is 1 µg/mL.

For the compound `Br.COC(=O)CC1SC2=NCCN2C1(O)c1ccccc1` (configuration not stated), the median effective dose (ED50) in experiment [1] came to 0.5 mg/kg. The same compound came in with an Activity in experiment [3] of 5 µg/mL.

Regarding `COC(=O)CC(Sc1nc2ccccc2[nH]1)C(=O)c1ccc(Cl)cc1` (configuration not stated), the Activity in experiment [3] was found to be 1 µg/mL.

Take `Br.CCOC(=O)CC1SC2=NCCN2C1(O)c1ccc(Cl)cc1` (configuration not stated): the Activity in experiment [3] was determined as 5 µg/mL.

Compound `CCOC(=O)CC1Sc2nc(=O)cc(NC(C)=O)n2C1(O)c1ccc(Cl)cc1` (configuration not stated) gave an Activity in experiment [3] of 1 µg/mL.

As to `Br.O=C(O)CC1SC2=NCCN2C1(O)c1ccc(Cl)cc1` (configuration not stated), in experiment [1], the ED50 amounted to 0.22 mg/kg.

`Br.CCOC(=O)CC1SC2=NCCN2C1(O)c1ccccc1` (configuration not stated): in experiment [1], the median effective dose (ED50) came to 0.27 mg/kg. The Activity in experiment [3] worked out at 5 µg/mL.
